Data: US20080009448A1, “Peptide Derivative” (priority 2006, published 2008)
Read-outs that look alike come from different tables or passages of the source.

Tests used:
Format in all cases: in vivo, mouse
[1] = tested on: heat nociceptive stimulation; assay: Anti-nociceptive activity test, tail-flick method
Protocol: (1) Experimental animal, male ddy mice (Japan SLC), weighing the body weight in the range of 22 to 25 g, were used for the studies. The animals had been kept under constant conditions (room temperature 22±2° C., humidity 55±5%, 12 hours light-and-dark cycle having light time 9:00 to 21:00 and dark time 21:00 to 9:00) until used for an experiment. The animals were fed the mouse solid diet (F2, Funabashi farm. Funabashi, Japan) with unrestricted tap water intake.
SS8225-01, 02, 03 04, 05, 06, 07 and 08 as examples and SS8225-09, 10, 11 and 12 as comparison examples were used as the administered drugs. […] In addition only Liger solution was administered as an experimental control. The animals were left for 60 minutes in the plastic cage to become familiar to the environment prior to the test in which measured a latent time for each mouse before drug administration in accordance with a tail-flick method noted below. Heat was radiated to a part of each mouse tail which is 2 cm from the end of its tail. Each of heat radiation periods before beginning of tail-flick was measured as a false pain threshold. Mice which responded to the stimulation within 2.5 to 3.5 seconds were pre-selected for the test. Administration solution under one administration condition for one kind of drug was administered to one experimental animal group including 10 mice. After the body weight of each mouse was measured, each volume of the administration solution was adjusted to be 0.1 mL/10 g of mouse body weight and then the solution was administered. The administration methods were two methods of subcutaneous administration (s. c.) and oral administration (p. o.). On subcutaneous administration, the administration solution of 0.1 mL per 10 g of body weight (0.1 mL/10 g) was injected into the back of the mouse using 27 gauge needle. On oral administration, the administration solution of 0.1 mL per 10 g of body weight (0.1 mL/10 g) was administered using an oral sonde.
Heat was radiated to a part of each mouse's tail of respective experimental group, which is 2 cm from the end of its tail, at 15, 30 and 60 minutes after the drug administration according to the preset measurement interval and a latent time until respective mouse swung its tail was measured as a false pain threshold value. The maximum stimulation period (cut-off-time) was set as 10 seconds to minimize the damage to the stimulation part. The anti-nociceptive effect was evaluated quantitatively by calculating % MPE (% of maximum possible effect) according to the following formula. [formula] T1: A latent time until beginning of tail-flick before respective drug administration (seconds) T2: A latent time until beginning of tail-flick after respective drug administration (seconds) Tc: A maximum stimulation period (cut-off-time)
The graphs (FIG. 1, FIG. 3, FIG. 5, FIG. 7, FIG. 9, FIG. 11, FIG. 13, FIG. 15, FIG. 17, FIG. 19, FIG. 21, FIG. 23, FIG. 25, FIG. 27, FIG. 29, FIG. 31, FIG. 33 and FIG. 35) showing a time-course variation of % MPE were created, in which a vertical axis is an average value with a standard error (means ±S. E. M.) obtained by calculation of % MPE of respective animals of 10 mice every administration condition of respective drugs and a horizontal axis is a time after administration. After treating % MPE data of each animal of experimental groups with respective doses and % MPE data of each animal of the experimental group with a control Ringer's solution at the same measurement time every drugs using the two-way layout dispersion analysis (two-way ANOVA), the hazard-ratio of P<0.05 was decided to be a significant difference according to Bonferroni post-test.
A lasting time of anti-nociceptive activity of each drug in the present description is the lasting time of anti-nociceptive activity under the dose condition providing the longest lasting time.
ED50 is represented in the unit of mg/Kg.

[2] = tested on: inflammatory pain model; assay: Rheumatoid arthritis / inflammatory pain model (CFA), Von Frey filament method; conditions: for ED50: Mus musculus, po, read-out: ED50 of the anti-nociceptive activity calculated using the unit-time AUC value
Protocol: Experimental animal, male ddy type mice (Nihon SLC), weighing the body weight in the range of 15 to 20 g, were used for the studies. The animals had been kept under constant conditions (room temperature 23±1° C., humidity 52±2%, 12 hours light-and-dark cycle having light time 7:00 to 19:00 and dark time 19:00 to 7:00) until used for an experiment. The animals were fed the mouse solid diet (F2, Funabashi farm. Funabashi, Japan) with unrestricted tap water intake, and kept in captivity for at least more than two days in a laboratory.
A mouse was firmly fixed without anesthesia and 25 μL of Complete Freund's Adjuvant (CFA) using a number 30 guage needle (Termo) was subcutaneously administered into the dorsum of left hind foot to provide an inflammatory pain model. The model was kept under the conditions noted above until used for the test.
Measurement of anti-nociceptive activity on the inflammatory pain model was conducted according to Von Fray filament method as well as on never damaged model 5 days after CFA administration. The drugs were orally administered.
The anti-nociceptive activity is represented as a unit AUC value (AUC/min) which is the total AUC value or AUC divided by the measurement time and compared to study. ED50 of the anti-nociceptive activity was calculated by reducing the measurement value to a percentage of the upper limit which was set as 2.0 for the unit AUC.

[3] = tested on: pressure stimulation; assay: Tail-pressure test; conditions: either oral or subcutaneous administration (FIG. 67, 68)
Protocol: The maximum pressure was 100 mmHg. The mice used for the experiment reacted to the pressure range between 40 mmHg and 50 mmHg in pre-selective experiment. A few mice or a few dozen of mice under the same condition were stimulated by adding pressure and respective threshold values for the pain reaction were measured in constant intervals after administration in accordance with different drugs administered and the different dosage thereof. According to the measurement value of the pain reaction threshold value, a percent of maximum possible effect, (% of MPE) was calculated using the following formula to quantify the anti-nociceptive activity. % of MPE=[(Pt−P0)/(Pc−Po)]×100 (in the formula, Po is a pain reaction threshold value before drug administration; Pt is a pain reaction threshold value t minute after drug administration; and Pc is a maximum simulative pressure)
The mouse which reacted to 532 through 665 Pa (40-50 mmHg) was reselected for the test. In addition the maximal stimulating pressure was set as 1333 Pa (100 mmHg). Then % MPE at this point was calculated from formula (1) as well as noted above.

[4] = mice, p.o., at activity-peak time, parentheses = 95% confidence limit
[5] = mice, s.c., at activity-peak time, parentheses = 95% confidence limit

Compound | ED50 ([1]; Mus musculus, po, mice, p.o., at activity-peak time, parentheses = 95% confidence limit, read-out: Oral ED50) [mg/kg] | activity-peak time after the oral administration ([1]; mice, p.o.) [min] | Oral ED50 [1, 4] | activity-peak time after the subcutaneous administration ([1]; mice, s.c.) [min] | Subcutaneous ED50 [1, 5] [mg/kg] | lasting time of anti-nociceptive activity ([1]; p.o., dose of 67.5 mg/Kg) [h] | lasting time of anti-nociceptive activity ([1]; s.c., dose of 5 mg/Kg) [h] | ED50 ([2]; CFA administered foot) [mg/kg] | ED50 ([2]; CFA non-administered foot) [mg/kg] | lasting time of anti-nociceptive activity ([2]; mice, CFA model, oral) [min] | peak of anti-nociceptive activity after administration ([2]; mice, CFA model, oral) [min] | dosage providing the same AUC, as part of morphine dosage ([1]; AUC of %MPE vs time, either oral or subcutaneous administration (FIG. 37, 38)) | lasting time of anti-nociceptive activity ([1]; p.o., dose of 10 mg/Kg) [h] | lasting time of anti-nociceptive activity ([1]; s.c., dose of 0.125 mg/Kg) [h] | dosage providing the same AUC, as part of morphine dosage [3]
CN1CC[C@]23c4c5ccc(O)c4O[C@H]2[C@@H](O)C=C[C@H]3[C@H]1C5 [Morphine] | 29.9 | 45 | 29.9 (26.37-33.95) mg/Kg | 30 | 2.51 | 5 | 1.5 | 113 | 67.9 | 360 | 30 | – | – | – | –
Iminoethyl-[Tyr]-[D-Met(O)]-[Phe]-[N-MeβAla]-NHCH3 [SS8225-07] | – | 180 | 2.51 mg/kg | 60 | 0.05 | – | – | – | – | – | – | a half through one fiftieth | 8 | 5 | one hundredth through one twentieth
